Source: patent US12503473B2, “Triazolopyrimidine compounds and their use in treating cancer” (Dizal (Jiangsu) Pharmaceutical Co., Ltd., priority 2018, dated 2025)

Legend:
MCT4 [1] = target: T1, MCT4 (Homo sapiens, UniProt O15427); experiment: cell-based
T1 sequence (O15427 1-465): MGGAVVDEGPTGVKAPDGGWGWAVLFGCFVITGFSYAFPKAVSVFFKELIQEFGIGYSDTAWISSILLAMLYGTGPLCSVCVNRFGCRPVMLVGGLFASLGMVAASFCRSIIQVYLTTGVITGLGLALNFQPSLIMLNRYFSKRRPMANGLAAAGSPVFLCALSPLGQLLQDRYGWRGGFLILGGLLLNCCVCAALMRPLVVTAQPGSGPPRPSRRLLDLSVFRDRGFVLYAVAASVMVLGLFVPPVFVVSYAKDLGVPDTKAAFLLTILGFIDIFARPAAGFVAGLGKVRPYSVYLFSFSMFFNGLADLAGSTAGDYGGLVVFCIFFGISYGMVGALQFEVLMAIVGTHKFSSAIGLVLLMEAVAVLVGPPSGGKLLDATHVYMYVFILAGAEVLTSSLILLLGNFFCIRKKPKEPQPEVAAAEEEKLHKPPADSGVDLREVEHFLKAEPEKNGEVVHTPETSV
Description: Cells were loaded with the pH sensitive dye BCECFAM(Invitrogen #B11150) before being washed to remove excess dye and seeded into the assay plates—directly onto the test compound—at a density of 15,000 cells/well (NCI—H358) or 30,000 cells/well (K562), in 30 μl HBSS with 1 mM [final] […] Assay plates were lidded and spun in a plate centrifuge at 170 g for 1 minute. Plates were then wrapped in foil and incubated in the dark for 1 hour at room temperature.
Following incubation with test compound, 10 μl of 25 mM Sodium-L-Lactate (Sigma #L7022) made up in HBSS with 1 mM [final] […] This addition was performed directly on the FLIPR Tetra platform (Molecular Devices) as part of a real-time kinetic read protocol. […] A percentage change from base-line was calculated for each test well and values normalised to control wells—treated with either DMSO (maximum assay signal) or chemistry related to that described in this patent (minimum assay signal)—before fitting concentration response curves to determine an IC50 value.

MCT4 [2] = target: T1, MCT4; experiment: Assay (a): lactate efflux from SK-Br-3 cells (lactate in media, 4 h); format: cell-based; set-up: a natively glycolytic human breast adenocarcinoma line predominantly expressing MCT4; host or cells: SK-Br-3; details: mean of at least three repeats (Example 32, marked *, two repeats), read-out: MCT4 lactate efflux pIC50 (SKBR3) (converted)
Description: Assay plates were lidded and incubated for 4 hours at 37° C. and 5% CO2.

Compound	IC50 (MCT4 [1])	IC50 (MCT4 [2])
Cc1nc2nc(C)c(C[C@@H]3CCN(c4ccc(-c5ccc(CN6CCOCC6)cc5)nn4)C3)c(C)n2n1 [Example 61, (R)-4-(4-(6-(3-((2,5,7-trimethyl-[1,2,4]triazolo[1,5-a]pyrimidin-6-yl)methyl)pyrrolidin-1-yl)pyridazin-3-yl)benzyl)morpholine]	6.31 nM	1 nM
Cc1nc2nc(C)c(C[C@@H]3CCN(c4ccc(-c5ccc(CN6CCOCC6)cn5)cc4)C3)c(C)n2n1 [Example 23, (R)-4-((6-(4-(3-((2,5,7-trimethyl-[1,2,4]triazolo[1,5-a]pyrimidin-6-yl)methyl)pyrrolidin-1-yl)phenyl)pyridin-3-yl)methyl)morpholine]	6.31 nM	0.398 nM
Cc1nc2nc(C)c(C[C@@H]3CCN(c4cnc(-c5ccc(CN6CCN(S(C)(=O)=O)CC6)cc5)cn4)C3)c(C)n2n1 [Example 52, 2,5,7-trimethyl-6-({(3R)-1-[5-(4-{[4-(methylsulfonyl)piperazin-1-yl]methyl}phenyl)pyrazin-2-yl]pyrrolidin-3-yl}methyl)[1,2,4]triazolo[1,5-a]pyrimidine]	10 nM	0.2 nM
Cc1nc2nc(C)c(C[C@@H]3CCN(c4cnc(-c5ccc(CN6CCOCC6)cn5)c(C)n4)C3)c(C)n2n1 [Example 47, (R)-4-((6-(3-methyl-5-(3-((2,5,7-trimethyl-[1,2,4]triazolo[1,5-a]pyrimidin-6-yl)methyl)pyrrolidin-1-yl)pyrazin-2-yl)pyridin-3-yl)methyl)morpholine]	10 nM	2 nM
Cc1nc2nc(C)c(C[C@@H]3CCN(c4cnc(-c5ccc(CN6CCOCC6)nc5)cn4)C3)c(C)n2n1 [Example 49, (R)-4-((5-(5-(3-((2,5,7-trimethyl-[1,2,4]triazolo[1,5-a]pyrimidin-6-yl)methyl)pyrrolidin-1-yl)pyrazin-2-yl)pyridin-2-yl)methyl)morpholine]	7.94 nM	0.631 nM
COc1cc(CN2CCN(C)CC2)ccc1-c1ncc(N2CC[C@@H](Cc3c(C)nc4nc(C)nn4c3C)C2)nc1C [Example 31, (R)-6-((1-(5-(2-methoxy-4-((4-methylpiperazin-1-yl)methyl)phenyl)-6-methylpyrazin-2-yl)pyrrolidin-3-yl)methyl)-2,5,7-trimethyl-[1,2,4]triazolo[1,5-a]pyrimidine]	50.1 nM	3.16 nM
Cc1nc2nc(C)c(C[C@@H]3CCN(c4cnc(-c5ccc(CN6CCOCC6)nc5)nc4)C3)c(C)n2n1 [Example 11, (R)-4-((5-(5-(3-((2,5,7-trimethyl-[1,2,4]triazolo[1,5-a]pyrimidin-6-yl)methyl)pyrrolidin-1-yl)pyrimidin-2-yl)pyridin-2-yl)methyl)morpholine]	7.94 nM	0.316 nM
CCN1CCN(Cc2ccc(-c3cnc(N4CC[C@@H](Cc5c(C)nc6nc(C)nn6c5C)C4)cn3)cc2)CC1 [Example 38, (R)-6-((1-(5-(4-((4-ethylpiperazin-1-yl)methyl)phenyl)pyrazin-2-yl)pyrrolidin-3-yl)methyl)-2,5,7-trimethyl-[1,2,4]triazolo[1,5-a]pyrimidine]	31.6 nM	3.98 nM
Cc1nc2nc(C)c(C[C@@H]3CCN(c4cnc(-c5ccc(CN6CCN(CC(=O)N(C)C)CC6)cc5)cn4)C3)c(C)n2n1 [Example 53, (R)—N,N-dimethyl-2-(4-(4-(5-(3-((2,5,7-trimethyl-[1,2,4]triazolo[1,5-a]pyrimidin-6-yl)methyl)pyrrolidin-1-yl)pyrazin-2-yl)benzyl)piperazin-1-yl)acetamide]	25.1 nM	0.631 nM
Cc1nc2nc(C)c(O[C@@H]3CCN(c4cnc(-c5ccc(CN6CCOCC6)cc5)cn4)C3)c(C)n2n1 [Example 78, (R)-4-(4-(5-(3-((2,5,7-trimethyl-[1,2,4]triazolo[1,5-a]pyrimidin-6-yl)oxy)pyrrolidin-1-yl)pyrazin-2-yl)benzyl)morpholine]	6.31 nM	2.51 nM
Cc1nc2nc(C)c(C[C@@H]3CCN(c4cnc(-c5ccc(CN6CCN(C)CC6)c(C)c5)cn4)C3)c(C)n2n1 [Example 56, (R)-2,5,7-trimethyl-6-((1-(5-(3-methyl-4-((4-methylpiperazin-1-yl)methyl)phenyl)pyrazin-2-yl)pyrrolidin-3-yl)methyl)-[1,2,4]triazolo[1,5-a]pyrimidine]	20 nM	0.631 nM
Cc1nc2nc(C)c(C[C@@H]3CCN(c4cnc(-c5ccc(CN6CCN(C)CC6)cc5)nc4)C3)c(C)n2n1 [Example 20, (R)-2,5,7-trimethyl-6-((1-(2-(4-((4-methylpiperazin-1-yl)methyl)phenyl)pyrimidin-5-yl)pyrrolidin-3-yl)methyl)-[1,2,4]triazolo[1,5-a]pyrimidine]	39.8 nM	0.501 nM
Cc1nc2nc(C)c(C[C@@H]3CCN(c4cnc(-c5ccc(CN6CCN(C)CC6)cc5)c(C)n4)C3)c(C)n2n1 [Example 54, (R)-2,5,7-trimethyl-6-((1-(6-methyl-5-(4-((4-methylpiperazin-1-yl)methyl)phenyl)pyrazin-2-yl)pyrrolidin-3-yl)methyl)-[1,2,4]triazolo[1,5-a]pyrimidine]	7.94 nM	0.398 nM
Cc1nc2nc(C)c(C[C@@H]3CCN(c4ccc(-c5ccc(CN6CCN(C)CC6)nc5)cn4)C3)c(C)n2n1 [Example 4, (R)-2,5,7-trimethyl-6-((1-(6′-((4-methylpiperazin-1-yl)methyl)-[3,3′-bipyridin]-6-yl)pyrrolidin-3-yl)methyl)-[1,2,4]triazolo[1,5-a]pyrimidine]	39.8 nM	0.631 nM
Cc1nc2nc(C)c(C[C@@H]3CCN(c4cnc(-c5ccc(CN6CCN(C)C[C@@H]6C)cc5)nc4)C3)c(C)n2n1 [Example 10, 6-(((R)-1-(2-(4-(((S)-2,4-dimethylpiperazin-1-yl)methyl)phenyl)pyrimidin-5-yl)pyrrolidin-3-yl)methyl)-2,5,7-trimethyl-[1,2,4]triazolo[1,5-a]pyrimidine]	31.6 nM	0.501 nM
Cc1nc2nc(C)c(O[C@@H]3CCN(c4cnc(-c5ccc(CN6CCN(C)CC6)cc5)cn4)C3)c(C)n2n1 [Example 77, (R)-2,5,7-trimethyl-6-((1-(5-(4-((4-methylpiperazin-1-yl)methyl)phenyl)pyrazin-2-yl)pyrrolidin-3-yl)oxy)-[1,2,4]triazolo[1,5-a]pyrimidine]	15.8 nM	3.98 nM
Cc1nc2nc(C)c(C[C@@H]3CCN(c4cnc(-c5ccc(CN6CCN(C)CC6)nc5)cn4)C3)c(C)n2n1 [Example 57, (R)-2,5,7-trimethyl-6-((1-(5-(6-((4-methylpiperazin-1-yl)methyl)pyridin-3-yl)pyrazin-2-yl)pyrrolidin-3-yl)methyl)-[1,2,4]triazolo[1,5-a]pyrimidine]	126 nM	3.98 nM
Cc1nc2nc(C)c(C[C@@H]3CCN(c4ccc(-c5cnc(CN6CCN(C)CC6)cn5)cc4)C3)c(C)n2n1 [Example 21, (R)-2,5,7-trimethyl-6-((1-(4-(5-((4-methylpiperazin-1-yl)methyl)pyrazin-2-yl)phenyl)pyrrolidin-3-yl)methyl)-[1,2,4]triazolo[1,5-a]pyrimidine]	20 nM	1.26 nM
